Molecules are shown by their SMILES.

The target in the assay is benzodiazepine site of the GABAA receptor. In words: Binding assay (3H-Ro15-1788 displacement, rat cortical tissue homogenate). The note with it: 0.5 nM 3H-Ro15-1788 [3H-Flumazenil], 30 min at 4° C., Cheng-Prussof equation.
For the compound `O=C(Nc1ccccn1)C1C=NC2=C1C(Nc1ccccn1)CCCC2` (stereo not drawn) [Example 10, 4-(Pyridin-2-ylamino)-3,4,5,6,7,8-hexahydro-cyclohepta[b]pyrrole-3-carboxylic acid pyridin-2-ylamide], the inhibitory constant (Ki) stood at 24 nM. Compound `O=C(Nc1ccccn1)c1c[nH]c2c1C(=O)C1CN(Cc3ccccc3)CC1CC2` (stereo not drawn) [Example 6, 6-Benzyl-4-oxo-4,4a,5,6,7,7a,8,9-octahydro-1H-1,6-diaza-cyclopenta[f]azulene-3-carboxylic acid pyridin-2-ylamide] had a Ki of 4 nM. Compared with the last compound, the Ki is about 6-fold lower. In turn, `CN(C)CC1CCc2[nH]cc(C(=O)Nc3ccccn3)c2C(=O)C1` (stereo not drawn) [Example 9, 6-Dimethylaminomethyl-4-oxo-1,4,5,6,7,8-hexahydro-cyclohepta[b]pyrrole-3-carboxylic acid pyridin-2-ylamide] registered an inhibition constant (Ki) of 23 nM. As for `COc1ccc(C2CCc3[nH]cc(C(=O)Nc4ccccn4)c3C(=O)C2)cc1F` (stereo not drawn) [Example 5, 6-(3-Fluoro-4-methoxy-phenyl)-4-oxo-1,4,5,6,7,8-hexahydro-cyclohepta[b]pyrrole-3carboxylic acid pyridin-2-ylamide], the figure is 8 nM. With `CC(C)C1CCc2[nH]cc(C(=O)Nc3ccccn3)c2C(=O)C1` (stereo not drawn) [Example 3, 6-Isopropyl-4-oxo-1,4,5,6,7,8-hexahydro-cyclohepta[b]pyrrole-3-carboxylic acid pyridin-2-ylamide], the Ki turned out to be 1 nM. Compared with the last compound, the Ki is about 8-fold lower. To `O=C(Nc1ccccn1)c1c[nH]c2c1C(=O)CC(c1ccc(F)cc1)CC2` (stereo not drawn) [Example 4, 6-(4-Fluoro-phenyl)-4-oxo-1,4,5,6,7,8-hexahydrocyclohepta[b]pyrrole-3-carboxylic acid pyridin-2-ylamide] belongs 7 nM; to `CC1CCc2[nH]cc(C(=O)Nc3ccccn3)c2C(=O)C1` (stereo not drawn) [Example 2, 6-Methyl-4-oxo-1,4,5,6,7,8-hexahydro-cydohepta[b]pyrrole-3-carboxylic acid pyridin-2-ylamide], 2 nM; to `CN1CC2CCc3[nH]cc(C(=O)Nc4ccccn4)c3C(=O)C2C1` (stereo not drawn) [Example 8, 6-Methyl-4-oxo-4,4a,5,6,7,7a,8,9-octahydro-1H-1,6-diaza-cyclopenta[f]azulene-3-carboxylic acid pyridin-2-ylamide], 8 nM. Compound `O=C(Nc1ccccn1)c1c[nH]c2c1C(=O)C1CNCC1CC2` (stereo not drawn) [Example 7, 4-Oxo-4,4a,5,6,7,7a,8,9-octahydro-1H-1,6-diaza-cyclopenta[f]azulene-3-carboxylic acid pyridin-2-ylamide] displayed a Ki of 7 nM.

In general, Ki refers to a measure of affinity in units of concentration, obtained from inhibition or displacement. Low values mean tighter binding, high ones weaker binding.

(Values after US6861529B2, “Cycloalkypyrrole-3-carboxylic acid derivatives and heterocycloalkylpyrrole-3-carboxylic acid derivatives” (Pfizer Inc, priority 2001, dated 2005).)
